Data from US20240132519A1, “NRF2-ACTIVATING COMPOUND” (SENJU PHARMACEUTICAL CO., LTD., priority 2020, published 2024).

What was measured:
[1] = biological target: binding between NRF2 and KEAP1 (Homo sapiens (Human), UniProt Q14145); experiment: Binding assay: inhibition of binding between NRF2 and KEAP1 by BRET (NanoLuc-NRF2 and KEAP1-HaloTag cell lysates); settings: Test Example 3; separated diastereomers; mean, N=2
Experimental: The inhibitory activity of each compound on the binding between NRF2 and KEAP1 was measured by bioluminescence resonance energy transfer (BRET) assay. A plasmid having human NRF2 (Original Clone ID: ha01449s1) sequence fused with NanoLuc (19 kDa, Promega) at the N-terminal was transduced into HCE-T cells (immortalized human corneal epithelial cells) using FuGENE HD (Promega). 48 hours after transduction, the cell lysate was collected and used as an NRF2-expressing cell lysate. A plasmid having human KEAP1 (Original Clone ID: cs00328) sequence fused with HaloTag (33 kDa, Promega) at the C-terminal was transduced into HCE-T cells using FuGENE HD (Promega). After 24 hours, HaloTag Nano BRET 618 Ligand (Promega) was added to the medium. The cell lysate cultured for 24 hours after the addition was used as a KEAP1-expressing cell lysate.
The NRF2-expressing cell lysate and the KEAP1-expressing cell lysate were adjusted so that the luminescence and fluorescence intensities per well were constant. Tables 1 and 2 show the formulation of each reaction solution.
Each test substance at a concentration 100 times higher than the test concentration was dissolved in dimethylsulfoxide for adjustment. 49 μL of KEAP1 solution was added to a 96-well polystyrene microplate (FALCON) to which 1 μL of each test substance solution was added, followed by incubation for 15 minutes. Then, 50 μL of NRF2 solution was added to the above solution, followed by incubation for 1 hour. To measure the binding between NRF2 and KEAP1, NanoBRET Nano-Glo Substrate (Promega) diluted with Opti-Mem (Thermo Fisher Scientific) was added, followed by shaking for 30 seconds. Then, luminescence and fluorescence were measured using the GloMax Discover System (Promega). A 495-nm short pass filter and a 600-nm long pass filter were respectively used to measure donor and acceptor emission values. A value obtained by dividing the acceptor emission value by the donor emission value was regarded as BRET value. A BRET value when the compound was not added, and a BRET value when the KEAP1 solution was not added were respectively used as binding rates of 100% and 0%, and the binding rate when the compound was added was calculated. Further, using this binding rate, the 50% binding inhibitory activity concentration (IC50) was calculated from the following formula. The test was performed at N=2.
IC50(M)=10^(LOG(A/B)×(50−C)/(D−C)+LOG(B)) • A: higher concentration out of 2 close concentrations across the inhibition rate of 50% • B: lower concentration out of 2 close concentrations across the inhibition rate of 50% • C: inhibition rate at B • D: inhibition rate at A
(§1) Compounds A1/A2, compounds B1/B2, compounds C1/C2, and compounds D1/D2 were used as test substances. Binding assay and reporter assay were performed as in Test Example 1-1 and Test Example 1-2.

[2] = test system: HCE-T cells; experiment: Cell viability test in HCE-T cells (Cell Counting Kit-8, 24 hours); format: cell-based, human; settings: mean, N=3
Experimental: To confirm cell viability, HCE-T cells were seeded at 10000 cells per well in a 96-well polystyrene microplate (IWAKI). The cells were cultured in a CO2 incubator at 37° C. for 16 hours to allow the cells to adhere. The culture of the HCE-T cells was performed using DMEM/F12 medium containing 10 ng/mL hEGF, 5 μg/mL insulin, 5% FBS, and 40 μg/mL gentamicin.
Each test substance was dissolved in dimethyl sulfoxide to prepare a stock solution with a concentration that is 1000 times the test concentration. DMEM/F12 medium containing 40 μg/mL gentamicin was used as assay medium. The medium containing serum and growth factors was removed and replaced with assay medium in which each test substance was appropriately serially diluted, and the cell viability was measured after 24 hours. Cell Counting Kit-8 (Dojindo Laboratories) was added to each well in an amount that is 1/10 the amount of the medium. Color reaction was performed for 1 hour in a CO2 incubator, and absorbance at 450 nm was measured with a microplate reader (Corona Electric Co., Ltd.). […] The test was performed at N=3.

[3] = test system: NRF2; experiment: Reporter assay: NRF2 activating action in HCE-T/ARE-Luc cells (ARE luciferase reporter gene assay); format: cell-based, human; settings: Test Example 3; separated diastereomers; mean, N=3
Experimental: The NRF2 activating action of the compounds on cells was measured by a reporter gene assay. pGL4.37[luc2P/ARE/Hygro] (Promega) was introduced into HCE-T cells using FuGENE HD. Cells that acquired drug resistance as a result of transduction were screened by culture in the presence of 50 μg/mL hygromycin, and a clone strain, HCE-T/ARE-Luc cells, was established.
HCE-T/ARE-Luc cells were cultured using DMEM/F12 medium containing 10 ng/mL hEGF, 5 μg/mL insulin, 5% FBS, and 40 μg/mL gentamicin. As the assay medium, a medium with the same composition as that for the culture was prepared using phenol red-free DMEM/F12 medium.
HCE-T/ARE-Luc cells were seeded in a 96-well polystyrene microplate (FALCON) with 10000 cells per well. The cells were incubated in a CO2 incubator at 37° C. for 16 hours to allow for cell adhesion. The test substance was dissolved in dimethylsulfoxide to prepare a solution at a concentration 1000 times higher than the test concentration. The cells were treated with the test substance diluted 1000-fold with the assay medium and cultured for 24 hours. When measuring the activity of the reporter, the medium containing the test substance was removed, and then a new medium and a substrate of ONE-GloEX Luciferase Assay System (Promega) were added. The plate was shaken for 1 minute and then allowed to stand at ordinary temperature for 10 minutes, and luminescence was detected using the GloMax Discover System (Promega).
The test was performed at N=3, and the 50% activation concentration of each test substance was calculated by creating a calibration curve between two concentrations across the luminescence incensity of 50%.
as §1

Sequence of binding between NRF2 and KEAP1 (Q14145 whole entry, the tested form may be a part): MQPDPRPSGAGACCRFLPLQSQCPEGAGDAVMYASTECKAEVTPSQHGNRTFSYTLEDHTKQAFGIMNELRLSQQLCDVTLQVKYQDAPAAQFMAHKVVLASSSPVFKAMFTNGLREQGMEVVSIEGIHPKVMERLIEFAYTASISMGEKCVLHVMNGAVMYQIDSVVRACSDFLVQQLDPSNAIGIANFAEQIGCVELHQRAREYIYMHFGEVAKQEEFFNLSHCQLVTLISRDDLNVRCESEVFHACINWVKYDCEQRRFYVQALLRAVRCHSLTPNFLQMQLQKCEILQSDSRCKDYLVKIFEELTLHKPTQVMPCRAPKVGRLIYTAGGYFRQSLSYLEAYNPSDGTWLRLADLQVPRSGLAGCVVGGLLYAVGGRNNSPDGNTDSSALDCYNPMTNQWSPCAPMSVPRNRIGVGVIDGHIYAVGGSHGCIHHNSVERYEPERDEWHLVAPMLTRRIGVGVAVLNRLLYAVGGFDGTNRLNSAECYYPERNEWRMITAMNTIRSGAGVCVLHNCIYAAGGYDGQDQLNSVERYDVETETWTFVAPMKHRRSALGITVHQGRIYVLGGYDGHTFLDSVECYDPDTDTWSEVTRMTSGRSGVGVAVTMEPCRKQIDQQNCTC

IC50 [1]: 0.17 nM
EC50 [3]: 0.98 nM
SMILES: CC[C@@H]1CN(Cc2cc([C@@H](c3ccc(C(C)=O)s3)[C@@H](C)C(=O)O)ccc2C)S(=O)(=O)c2cnccc2O1 [Compound B1, (2R,3S)-3-(5-acetylthiophen-2-yl)-3-(3-{[(R)-4-ethyl-1,1-dioxide-3,4-dihydro-2H-pyrido[4,3-b][1,4,5]oxathiazepin-2-yl]methyl}-4-methylphenyl)-2-methylpropanoic acid]
Cytotoxic concentration (concentration that does not affect cell viability) [2]: 345.4 µM
